# Test results from ChEMBL document CHEMBL3885881, “DrugMatrix”.
# Species: Rattus norvegicus
# Assay: DrugMatrix - Regimen: Daily Repeat
# Type: toxicity, organism-based, Sprague-Dawley
# Parameters: regimen Daily Repeat, gender Male, age 6-8 weeks
# Settings: in vivo, po, route oral GAVAGE, vehicle .5 % CMC; for ABSOLUTE BASOPHIL / ABSOLUTE EOSINOPHIL / ABSOLUTE LYMPHOCYTE / ABSOLUTE MONOCYTE / ABSOLUTE SEGMENTED NEUTROPHIL / BASOPHIL / EOSINOPHIL / ERYTHROCYTE COUNT / HEMATOCRIT / HEMOGLOBIN / LEUKOCYTE COUNT / LYMPHOCYTE / MEAN CORPUSCULAR HEMOGLOBIN / MEAN CORPUSCULAR HEMOGLOBIN CONCENTRATION / MEAN CORPUSCULAR VOLUME / MONOCYTE / NEUTROPHIL / NUCLEATED RED BLOOD CELLS / PLATELET COUNT: tissue Blood; for ALANINE AMINOTRANSFERASE / ALBUMIN / ALKALINE PHOSPHATASE / ASPARTATE AMINOTRANSFERASE / BLOOD UREA NITROGEN / CARBON DIOXIDE / CHLORIDE / CHOLESTEROL / CREATINE PHOSPHOKINASE / CREATININE / GLUCOSE / LACTATE DEHYDROGENASE / LIPASE / PHOSPHORUS / POTASSIUM / SODIUM / TOTAL BILIRUBIN / TOTAL PROTEIN / URIC ACID: tissue Plasma
# [1] = 25 mg/kg, 72 h, dose level Low, time 3 day
# [2] = 25 mg/kg, 120 h, dose level Low, time 5 day
# [3] = 300 mg/kg, 72 h, dose level High, time 3 day
# [4] = 300 mg/kg, 120 h, dose level High, time 5 day
smiles,measurement,setting,value
CC(=O)S[C@@H]1CC2=CC(=O)CC[C@]2(C)[C@H]2CC[C@@]3(C)[C@@H](CC[C@@]34CCC(=O)O4)[C@H]12 [SPIRONOLACTONE],ABSOLUTE BASOPHIL,[1],0 CELLS/uL
same,ABSOLUTE EOSINOPHIL,[1],0 CELLS/uL
same,ABSOLUTE LYMPHOCYTE,[1],11038 CELLS/uL
same,ABSOLUTE MONOCYTE,[1],168 CELLS/uL
same,ABSOLUTE SEGMENTED NEUTROPHIL,[1],694 CELLS/uL
same,BASOPHIL,[1],0%
same,EOSINOPHIL,[1],0%
same,ERYTHROCYTE COUNT,[1],5.44 x10E6/uL
same,HEMATOCRIT,[1],34.63%
same,HEMOGLOBIN,[1],13.87 G/DL
same,LEUKOCYTE COUNT,[1],11.9 x10E3/uL
same,LYMPHOCYTE,[1],92.67%
same,MEAN CORPUSCULAR HEMOGLOBIN,[1],25.53 pg
same,MEAN CORPUSCULAR HEMOGLOBIN CONCENTRATION,[1],40.03 G/DL
same,MEAN CORPUSCULAR VOLUME,[1],63.7 fL
same,MONOCYTE,[1],1.33%
same,NEUTROPHIL,[1],6%
same,NUCLEATED RED BLOOD CELLS,[1],0.67 /100WBC
same,PLATELET COUNT,[1],1277 x10E3/uL
same,ALANINE AMINOTRANSFERASE,[1],45.67 u/L
same,ALBUMIN,[1],4.3 G/DL
same,ALKALINE PHOSPHATASE,[1],295 u/L
same,ASPARTATE AMINOTRANSFERASE,[1],77.33 u/L
same,BLOOD UREA NITROGEN,[1],15.33 mg/dL
same,CARBON DIOXIDE,[1],28 mmol/L
same,CHLORIDE,[1],101.33 MEQ/L
same,CHOLESTEROL,[1],76.33 mg/dL
same,CREATINE PHOSPHOKINASE,[1],188.33 u/L
same,CREATININE,[1],0.21 mg/dL
same,GLUCOSE,[1],169.33 mg/dL
same,LACTATE DEHYDROGENASE,[1],202.67 u/L
same,LIPASE,[1],9.67 u/L
same,PHOSPHORUS,[1],12.5 mg/dL
same,POTASSIUM,[1],6.74 MEQ/L
same,SODIUM,[1],146.03 MEQ/L
same,TOTAL BILIRUBIN,[1],0.2 mg/dL
same,TOTAL PROTEIN,[1],5.83 G/DL
same,URIC ACID,[1],1.8 mg/dL
same,ABSOLUTE BASOPHIL,[2],0 CELLS/uL
same,ABSOLUTE EOSINOPHIL,[2],0 CELLS/uL
same,ABSOLUTE LYMPHOCYTE,[2],13033 CELLS/uL
same,ABSOLUTE MONOCYTE,[2],85.33 CELLS/uL
same,ABSOLUTE SEGMENTED NEUTROPHIL,[2],1115 CELLS/uL
same,BASOPHIL,[2],0%
same,EOSINOPHIL,[2],0%
same,ERYTHROCYTE COUNT,[2],5.6 x10E6/uL
same,HEMATOCRIT,[2],34.4%
same,HEMOGLOBIN,[2],13.67 G/DL
same,LEUKOCYTE COUNT,[2],14.23 x10E3/uL
same,LYMPHOCYTE,[2],91.33%
same,MEAN CORPUSCULAR HEMOGLOBIN,[2],24.47 pg
same,MEAN CORPUSCULAR HEMOGLOBIN CONCENTRATION,[2],39.73 G/DL
same,MEAN CORPUSCULAR VOLUME,[2],61.5 fL
same,MONOCYTE,[2],0.67%
same,NEUTROPHIL,[2],8%
same,NUCLEATED RED BLOOD CELLS,[2],0 /100WBC
same,PLATELET COUNT,[2],1372 x10E3/uL
same,ALANINE AMINOTRANSFERASE,[2],48.67 u/L
same,ALBUMIN,[2],4.3 G/DL
same,ALKALINE PHOSPHATASE,[2],354.67 u/L
same,ASPARTATE AMINOTRANSFERASE,[2],81 u/L
same,BLOOD UREA NITROGEN,[2],19 mg/dL
same,CARBON DIOXIDE,[2],25.67 mmol/L
same,CHLORIDE,[2],103.33 MEQ/L
same,CHOLESTEROL,[2],60.33 mg/dL
same,CREATINE PHOSPHOKINASE,[2],259.33 u/L
same,CREATININE,[2],0.2 mg/dL
same,GLUCOSE,[2],164.33 mg/dL
same,LACTATE DEHYDROGENASE,[2],139 u/L
same,LIPASE,[2],9.67 u/L
same,PHOSPHORUS,[2],12.23 mg/dL
same,POTASSIUM,[2],6.24 MEQ/L
same,SODIUM,[2],148.03 MEQ/L
same,TOTAL BILIRUBIN,[2],0.23 mg/dL
same,TOTAL PROTEIN,[2],6.27 G/DL
same,URIC ACID,[2],1.93 mg/dL
same,ABSOLUTE BASOPHIL,[3],0 CELLS/uL
same,ABSOLUTE EOSINOPHIL,[3],0 CELLS/uL
same,ABSOLUTE LYMPHOCYTE,[3],10747 CELLS/uL
same,ABSOLUTE MONOCYTE,[3],38 CELLS/uL
same,ABSOLUTE SEGMENTED NEUTROPHIL,[3],481.67 CELLS/uL
same,BASOPHIL,[3],0%
same,EOSINOPHIL,[3],0%
same,ERYTHROCYTE COUNT,[3],5.83 x10E6/uL
same,HEMATOCRIT,[3],37.33%
same,HEMOGLOBIN,[3],14.97 G/DL
same,LEUKOCYTE COUNT,[3],11.27 x10E3/uL
same,LYMPHOCYTE,[3],95.33%
same,MEAN CORPUSCULAR HEMOGLOBIN,[3],25.67 pg
same,MEAN CORPUSCULAR HEMOGLOBIN CONCENTRATION,[3],40.07 G/DL
same,MEAN CORPUSCULAR VOLUME,[3],64.03 fL
same,MONOCYTE,[3],0.33%
same,NEUTROPHIL,[3],4.33%
same,NUCLEATED RED BLOOD CELLS,[3],0 /100WBC
same,PLATELET COUNT,[3],1193 x10E3/uL
same,ALANINE AMINOTRANSFERASE,[3],95 u/L
same,ALBUMIN,[3],4.27 G/DL
same,ALKALINE PHOSPHATASE,[3],425.67 u/L
same,ASPARTATE AMINOTRANSFERASE,[3],757 u/L
same,BLOOD UREA NITROGEN,[3],16.67 mg/dL
same,CARBON DIOXIDE,[3],22.67 mmol/L
same,CHLORIDE,[3],101.33 MEQ/L
same,CHOLESTEROL,[3],65.67 mg/dL
same,CREATINE PHOSPHOKINASE,[3],5158.67 u/L
same,CREATININE,[3],0.2 mg/dL
same,GLUCOSE,[3],152.67 mg/dL
same,LACTATE DEHYDROGENASE,[3],2756 u/L
same,LIPASE,[3],11 u/L
same,PHOSPHORUS,[3],12.67 mg/dL
same,POTASSIUM,[3],9.65 MEQ/L
same,SODIUM,[3],142.53 MEQ/L
same,TOTAL BILIRUBIN,[3],0.3 mg/dL
same,TOTAL PROTEIN,[3],6.07 G/DL
same,URIC ACID,[3],3.73 mg/dL
same,ABSOLUTE BASOPHIL,[4],0 CELLS/uL
same,ABSOLUTE EOSINOPHIL,[4],55.67 CELLS/uL
same,ABSOLUTE LYMPHOCYTE,[4],15788 CELLS/uL
same,ABSOLUTE MONOCYTE,[4],55.67 CELLS/uL
same,ABSOLUTE SEGMENTED NEUTROPHIL,[4],1134 CELLS/uL
same,BASOPHIL,[4],0%
same,EOSINOPHIL,[4],0.33%
same,ERYTHROCYTE COUNT,[4],5.9 x10E6/uL
same,HEMATOCRIT,[4],35.17%
same,HEMOGLOBIN,[4],14.23 G/DL
same,LEUKOCYTE COUNT,[4],17.03 x10E3/uL
same,LYMPHOCYTE,[4],92.67%
same,MEAN CORPUSCULAR HEMOGLOBIN,[4],24.17 pg
same,MEAN CORPUSCULAR HEMOGLOBIN CONCENTRATION,[4],40.47 G/DL
same,MEAN CORPUSCULAR VOLUME,[4],59.6 fL
same,MONOCYTE,[4],0.33%
same,NEUTROPHIL,[4],6.67%
same,NUCLEATED RED BLOOD CELLS,[4],0 /100WBC
same,PLATELET COUNT,[4],1586.67 x10E3/uL
same,ALANINE AMINOTRANSFERASE,[4],70.33 u/L
same,ALBUMIN,[4],4.23 G/DL
same,ALKALINE PHOSPHATASE,[4],327.33 u/L
same,ASPARTATE AMINOTRANSFERASE,[4],72.33 u/L
same,BLOOD UREA NITROGEN,[4],17.33 mg/dL
same,CARBON DIOXIDE,[4],27.33 mmol/L
same,CHLORIDE,[4],101.33 MEQ/L
same,CHOLESTEROL,[4],60.67 mg/dL
same,CREATINE PHOSPHOKINASE,[4],189.67 u/L
same,CREATININE,[4],0.21 mg/dL
same,GLUCOSE,[4],158.33 mg/dL
same,LACTATE DEHYDROGENASE,[4],134.33 u/L
same,LIPASE,[4],10.33 u/L
same,PHOSPHORUS,[4],11.07 mg/dL
same,POTASSIUM,[4],6.24 MEQ/L
same,SODIUM,[4],145.57 MEQ/L
same,TOTAL BILIRUBIN,[4],0.2 mg/dL
same,TOTAL PROTEIN,[4],6.17 G/DL
same,URIC ACID,[4],2 mg/dL
